Calls of active or inactive are those of the source. The rule behind the calls is not given here.
How the values were obtained:
[1] = molecular target: Glucoamylase (Aspergillus niger) (UniProt P69328); test: Inhibitory activity against Amyloglucosidase of Aspergillus niger at 1 mM; No inhibition
[2] = test system: Canavalia ensiformis; test: Percent inhibition against Alpha-mannosidase of Jack bean at 1 mM
[3] = molecular target: T1, Beta-galactosidase (Bos taurus) (UniProt Q58D55); test: Percent inhibition against Beta-D-galactosidase of bovine liver at 1 mM
T1 sequence (whole entry): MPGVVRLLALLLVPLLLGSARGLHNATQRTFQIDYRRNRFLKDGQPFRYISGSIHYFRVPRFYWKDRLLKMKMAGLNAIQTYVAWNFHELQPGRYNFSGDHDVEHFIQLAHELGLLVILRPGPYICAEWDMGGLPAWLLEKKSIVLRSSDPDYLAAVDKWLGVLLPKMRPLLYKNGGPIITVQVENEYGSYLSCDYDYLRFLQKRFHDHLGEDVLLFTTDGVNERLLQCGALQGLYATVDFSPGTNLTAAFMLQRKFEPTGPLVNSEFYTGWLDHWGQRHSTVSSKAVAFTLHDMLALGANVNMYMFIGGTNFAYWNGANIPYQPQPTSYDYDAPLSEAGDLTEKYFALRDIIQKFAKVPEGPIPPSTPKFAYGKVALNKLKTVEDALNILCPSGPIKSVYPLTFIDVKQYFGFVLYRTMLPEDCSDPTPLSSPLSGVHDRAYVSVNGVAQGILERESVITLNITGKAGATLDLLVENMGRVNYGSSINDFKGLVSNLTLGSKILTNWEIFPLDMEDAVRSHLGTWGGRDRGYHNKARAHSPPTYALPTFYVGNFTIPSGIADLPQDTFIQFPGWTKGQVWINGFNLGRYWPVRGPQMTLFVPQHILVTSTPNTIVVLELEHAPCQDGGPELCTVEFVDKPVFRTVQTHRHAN

[4] = molecular target: Beta-galactosidase (Escherichia coli) (UniProt Q8VNN2); test: Inhibitory activity against Beta-D-galactosidase of Escherichia coli at 1 mM; No inhibition
[5] = test system: Prunus dulcis; test: Percent inhibition against Alpha-mannosidase of Almonds at 1 mM
[6] = molecular target: T2, Beta-galactosidase (Aspergillus niger) (UniProt P29853); test: Inhibitory activity against Beta-D-galactosidase of Aspergillus niger at 1 mM; No inhibition
T2 sequence (whole entry): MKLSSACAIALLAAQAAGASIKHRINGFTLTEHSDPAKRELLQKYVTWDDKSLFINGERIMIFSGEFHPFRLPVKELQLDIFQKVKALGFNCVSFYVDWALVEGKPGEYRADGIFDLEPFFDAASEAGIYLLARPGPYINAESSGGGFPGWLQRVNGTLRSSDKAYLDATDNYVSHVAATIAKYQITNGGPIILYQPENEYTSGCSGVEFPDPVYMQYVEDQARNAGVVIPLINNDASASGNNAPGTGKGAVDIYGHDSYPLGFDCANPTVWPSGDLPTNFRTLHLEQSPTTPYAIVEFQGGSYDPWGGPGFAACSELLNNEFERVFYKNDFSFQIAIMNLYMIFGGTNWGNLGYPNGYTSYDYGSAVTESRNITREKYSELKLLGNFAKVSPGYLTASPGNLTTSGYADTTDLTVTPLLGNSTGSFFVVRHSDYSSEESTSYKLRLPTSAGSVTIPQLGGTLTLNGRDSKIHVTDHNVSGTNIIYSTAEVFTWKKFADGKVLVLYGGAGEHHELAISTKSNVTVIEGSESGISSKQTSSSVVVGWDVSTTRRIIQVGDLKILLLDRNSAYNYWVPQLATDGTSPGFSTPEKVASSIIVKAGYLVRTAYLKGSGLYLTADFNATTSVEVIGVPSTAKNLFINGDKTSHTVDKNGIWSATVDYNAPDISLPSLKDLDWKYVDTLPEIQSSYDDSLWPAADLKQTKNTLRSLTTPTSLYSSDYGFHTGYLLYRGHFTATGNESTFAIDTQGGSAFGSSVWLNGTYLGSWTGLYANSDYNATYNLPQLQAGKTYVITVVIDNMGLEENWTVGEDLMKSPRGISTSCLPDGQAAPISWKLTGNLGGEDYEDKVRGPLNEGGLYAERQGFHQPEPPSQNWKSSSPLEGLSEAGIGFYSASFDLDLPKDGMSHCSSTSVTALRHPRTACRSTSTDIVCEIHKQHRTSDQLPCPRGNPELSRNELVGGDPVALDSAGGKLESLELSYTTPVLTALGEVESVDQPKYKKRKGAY

[7] = molecular target: Glucoamylase (Aspergillus niger) (UniProt P69328); test: Percent inhibition against Amyloglucosidase of Aspergillus niger at 1 mM
[8] = test system: Prunus dulcis; test: Inhibitory activity against Alpha-mannosidase of Almonds at 1 mM; No inhibition
[9] = test system: Coffea arabica; test: Inhibitory activity against Alpha-galactosidase of coffee bean at 1 mM; No inhibition
[10] = test system: Rhizopus; test: Inhibitory activity against Amyloglucosidase of Rhizopus mold at 1 mM; No inhibition
[11] = test system: Canavalia ensiformis; test: Inhibitory activity against Alpha-mannosidase of Jack bean at 1 mM; No inhibition
[12] = test system: maltase (Oryza sativa); test: Inhibitory activity against maltase of rice at 1 mM; No inhibition
[13] = test system: isomaltase (Saccharomyces cerevisiae); test: Inhibitory activity against isomaltase of baker yeast at 1 mM; No inhibition
[14] = test system: Helix pomatia; test: Inhibitory activity against Beta-mannosidase of Helix pomatia at 1 mM; No inhibition
[15] = test system: Prunus dulcis; test: Inhibitory activity against Beta-glucosidase of almonds at 1 mM; No inhibition
[16] = test system: Beta-N-acetylglucosaminidase (Canavalia ensiformis); test: Inhibitory activity against Beta-N-acetylglucosaminidase of Jack bean at 1 mM; No inhibition
[17] = test system: Beta-N-acetylglucosaminidase (Bos taurus); test: Inhibitory activity against Beta-N-acetylglucosaminidase of bovine epididymis B at 1 mM; No inhibition
[18] = test system: Aspergillus oryzae; test: Inhibitory activity against Beta-D-galactosidase of Aspergillus oryzae at 1 mM; No inhibition
[19] = species: Bos taurus; test: Inhibitory activity against alpha-L-Fucosidase of bovine epididymis at 1 mM; No inhibition
[20] = test system: Beta-N-acetylglucosaminidase (Bos taurus); test: Inhibitory activity against Beta-N-acetylglucosaminidase of bovine epididymis A at 1 mM; No inhibition
[21] = test system: Caldicellulosiruptor saccharolyticus; test: Inhibitory activity against Beta-glucosidase of Caldocellum saccharolyticum at 1 mM; No inhibition
[22] = species: Gallus gallus; test: Inhibitory activity against alpha-N-acetylgalactosaminidase of chicken liver at 1 mM; No inhibition
[23] = test system: Aspergillus niger; test: Inhibitory activity against Alpha-galactosidase of Aspergillus niger at 1 mM; No inhibition
[24] = molecular target: T3, Tissue alpha-L-fucosidase (Homo sapiens) (UniProt P04066); test: Inhibitory activity against alpha-L-Fucosidase of human placenta at 1 mM; No inhibition
T3 sequence (whole entry): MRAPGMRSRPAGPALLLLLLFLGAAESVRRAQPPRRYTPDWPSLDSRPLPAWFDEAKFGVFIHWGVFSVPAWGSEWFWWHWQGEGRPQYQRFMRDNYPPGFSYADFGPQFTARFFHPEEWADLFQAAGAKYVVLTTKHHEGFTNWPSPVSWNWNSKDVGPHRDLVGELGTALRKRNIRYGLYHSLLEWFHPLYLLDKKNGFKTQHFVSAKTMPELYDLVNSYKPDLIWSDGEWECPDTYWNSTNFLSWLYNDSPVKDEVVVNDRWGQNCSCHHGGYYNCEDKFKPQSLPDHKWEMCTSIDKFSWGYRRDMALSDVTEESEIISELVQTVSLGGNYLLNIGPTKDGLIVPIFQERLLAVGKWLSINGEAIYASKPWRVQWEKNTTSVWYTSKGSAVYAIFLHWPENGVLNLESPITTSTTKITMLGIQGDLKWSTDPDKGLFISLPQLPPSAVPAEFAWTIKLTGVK

[25] = test system: Canavalia ensiformis; test: Inhibitory activity against Beta-D-galactosidase of Jack bean at 1 mM; No inhibition
[26] = test system: Escherichia coli; test: Inhibitory activity against Alpha-galactosidase of Escherichia coli at 1 mM; No inhibition
[27] = test system: maltase (Saccharomyces cerevisiae); test: Inhibitory activity against maltase of yeast at 1 mM; No inhibition
[28] = molecular target: T2, Beta-galactosidase (Aspergillus niger); details: 1 mM
Description: Percent inhibition against Beta-D-galactosidase of Aspergillus niger at 1 mM

[29] = molecular target: T3, Tissue alpha-L-fucosidase (Homo sapiens); test: Percent inhibition against alpha-L-Fucosidase of human placenta at 1 mM
[30] = test system: maltase (Oryza sativa); test: Inhibitory activity against maltase of rice at 1 mM
[31] = species: Bos taurus; test: Percent inhibition against alpha-L-Fucosidase of bovine epididymis at 1 mM
[32] = molecular target: T4, Tissue alpha-L-fucosidase (Homo sapiens, UniProt P04066); test: Inhibitory concentration against alpha-L-Fucosidase of human placenta
T4 sequence (P04066 whole entry): T3 sequence (whole entry)

Sequence of Glucoamylase (Aspergillus niger) (P69328 whole entry): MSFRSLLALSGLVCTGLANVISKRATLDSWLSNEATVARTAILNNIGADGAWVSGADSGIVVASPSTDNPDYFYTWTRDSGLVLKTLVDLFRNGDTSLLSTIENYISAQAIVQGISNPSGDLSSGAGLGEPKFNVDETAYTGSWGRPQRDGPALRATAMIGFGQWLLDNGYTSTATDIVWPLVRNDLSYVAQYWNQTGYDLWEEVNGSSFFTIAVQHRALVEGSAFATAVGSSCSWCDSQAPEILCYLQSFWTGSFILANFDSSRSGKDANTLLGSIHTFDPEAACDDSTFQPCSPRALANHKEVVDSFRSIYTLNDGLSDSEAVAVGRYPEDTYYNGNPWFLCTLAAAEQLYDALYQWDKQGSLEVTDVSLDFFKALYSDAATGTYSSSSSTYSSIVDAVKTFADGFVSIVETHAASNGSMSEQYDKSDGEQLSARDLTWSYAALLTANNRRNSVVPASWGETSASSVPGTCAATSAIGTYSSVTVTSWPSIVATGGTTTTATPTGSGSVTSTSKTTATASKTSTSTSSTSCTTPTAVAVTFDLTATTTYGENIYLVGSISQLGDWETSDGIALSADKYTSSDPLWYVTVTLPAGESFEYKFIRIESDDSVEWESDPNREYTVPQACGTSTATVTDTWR
Sequence of Beta-galactosidase (Escherichia coli) (Q8VNN2 whole entry, looked up): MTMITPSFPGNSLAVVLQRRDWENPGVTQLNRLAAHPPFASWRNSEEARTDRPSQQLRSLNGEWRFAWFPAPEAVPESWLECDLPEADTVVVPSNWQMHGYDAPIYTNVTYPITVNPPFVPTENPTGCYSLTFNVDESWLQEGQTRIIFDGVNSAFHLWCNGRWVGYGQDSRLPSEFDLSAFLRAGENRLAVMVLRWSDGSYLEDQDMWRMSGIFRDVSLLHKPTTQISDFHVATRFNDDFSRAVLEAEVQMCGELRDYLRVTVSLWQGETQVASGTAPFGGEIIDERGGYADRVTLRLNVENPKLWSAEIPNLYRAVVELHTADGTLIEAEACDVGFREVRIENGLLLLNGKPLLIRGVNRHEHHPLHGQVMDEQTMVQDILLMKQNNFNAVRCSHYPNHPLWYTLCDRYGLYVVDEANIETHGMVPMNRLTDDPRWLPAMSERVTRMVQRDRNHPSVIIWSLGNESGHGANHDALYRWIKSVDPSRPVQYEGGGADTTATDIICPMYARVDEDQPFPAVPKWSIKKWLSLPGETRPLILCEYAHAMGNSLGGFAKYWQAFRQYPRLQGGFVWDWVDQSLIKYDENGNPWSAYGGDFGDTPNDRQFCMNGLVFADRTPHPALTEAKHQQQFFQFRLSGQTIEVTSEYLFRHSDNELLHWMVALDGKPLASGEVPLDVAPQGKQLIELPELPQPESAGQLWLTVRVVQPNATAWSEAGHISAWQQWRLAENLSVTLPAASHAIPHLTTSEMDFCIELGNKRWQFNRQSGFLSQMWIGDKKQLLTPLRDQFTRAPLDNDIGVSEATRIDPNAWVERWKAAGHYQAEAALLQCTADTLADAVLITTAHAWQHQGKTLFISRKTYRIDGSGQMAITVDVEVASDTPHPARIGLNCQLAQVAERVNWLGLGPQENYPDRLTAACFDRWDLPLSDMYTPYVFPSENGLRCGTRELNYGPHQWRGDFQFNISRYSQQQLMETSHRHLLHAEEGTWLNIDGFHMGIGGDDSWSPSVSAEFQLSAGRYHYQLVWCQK

Compound	inhibition [1]	inhibition [2] [%]	inhibition [3] [%]	inhibition [4]	inhibition [5] [%]	inhibition [6]	inhibition [8]	inhibition [9]	inhibition [10]	inhibition [11]	inhibition [13]	inhibition [14]	inhibition [15]	inhibition [16]	inhibition [17]	inhibition [18]	inhibition [20]	inhibition [21]	inhibition [22]	inhibition [23]	further results
CCN(CC)C(=O)c1cc(C2NCC(O)C2O)oc1C (configuration not stated)	inactive	27	58	inactive	31	inactive	–	–	–	–	–	–	–	–	–	–	–	–	–	–	–
Cc1oc(C2NCC(O)C2O)cc1C(=O)NC(C)C (configuration not stated)	–	–	38	inactive	29	inactive	–	–	–	–	–	–	–	–	–	–	–	–	–	–	inhibition [7]: 23%
Cc1oc(C2NCC(O)C2O)cc1CO (configuration not stated)	inactive	–	50	inactive	–	inactive	inactive	inactive	inactive	inactive	inactive	No inhibition	inactive	inactive	inactive	inactive	inactive	No inhibition	inactive	inactive	inhibition [12]: inactive; inhibition [19]: inactive; inhibition [24]: inactive; inhibition [25]: inactive; inhibition [26]: inactive; inhibition [27]: inactive
CCNC(=O)c1cc(C2NCC(O)C2O)oc1C (configuration not stated)	inactive	29	52	inactive	32	inactive	–	–	–	–	–	–	–	–	–	–	–	–	–	–	–
CCOC(=O)c1cc(C2NCC(O)C2O)oc1C (configuration not stated)	inactive	38	57	inactive	–	–	inactive	–	–	–	–	–	–	–	–	–	–	–	–	–	inhibition [28]: 80%; inhibition [29]: 76%
Cc1oc(C2NCC(O)C2O)cc1C(=O)O (configuration not stated)	inactive	–	30	inactive	–	inactive	inactive	inactive	inactive	inactive	inactive	No inhibition	inactive	inactive	inactive	inactive	inactive	No inhibition	inactive	inactive	inhibition [30]: No inhibition; inhibition [19]: inactive; inhibition [24]: inactive; inhibition [25]: inactive; inhibition [26]: inactive; inhibition [27]: inactive
Cc1oc(C2NCC(O)C2O)cc1C(=O)Nc1ccccc1 (configuration not stated)	inactive	–	39	inactive	–	inactive	inactive	inactive	inactive	inactive	inactive	No inhibition	inactive	inactive	inactive	inactive	inactive	No inhibition	inactive	inactive	inhibition [12]: inactive; inhibition [31]: < 10%; inhibition [25]: inactive; inhibition [26]: inactive; inhibition [29]: 51%; inhibition [27]: inactive; IC50 [32]: 1000 µM

Reference: ChEMBL document CHEMBL1133967, “New leads for selective inhibitors of alpha-L-fucosidases. Synthesis and glycosidase inhibitory activities of [(2R,3S,4R)-3,4-dihydroxypyrrolidin-2-yl]furan derivatives” (Bioorg Med Chem Lett, 2001)
